Experimental data: article PMC5628141 (Molecular cancer therapeutics, 2017)

Target: T1, androgen receptor DNA binding domain (AR-DBD) (Rattus norvegicus, UniProt P15207, C552A)
T1 sequence (P15207 550-637 C552A): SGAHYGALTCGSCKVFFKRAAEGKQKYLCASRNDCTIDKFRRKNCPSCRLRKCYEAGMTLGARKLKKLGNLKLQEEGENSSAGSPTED
Assay: isothermal titration calorimetry

Kd: ~64 µM
Compound: Brc1cn(-c2csc(N3CCOCC3)n2)c(Br)n1 [VPC-14449, 4-(4-(2,4-bromo-1H-imidazol-1-yl)thiazol-2-yl)morpholine]
